Test results published in patent US9937225B2, “Topical formulations and uses thereof” (OCULAR TECHNOLOGIES SARL, priority 2012, dated 2018).

Legend:
[1] = Visual appearance of mixed nanomicellar formulation; assay type: physicochemical; conditions: for Final formulation / Resuspend in water / Final formulation (make up with 2X buffer containing 0.01% Oc-40): 1001 4 wt %; for Result: solvent evaporation, HCO-60 4 wt %, Octoxynol-40 0.01 wt %
Experimental: Mixed nanomicellar formulation encapsulating compound 1001 was prepared by solvent evaporation method in two steps: 1) Preparation of basic formulation and 2) rehydration. In step one, compound 1001, HCO-60 and octoxynol-40 were dissolved separately in 0.3 mL of ethyl acetate. These three solutions were mixed together in 15-mL centrifuge tube. The resultant mixture was vortexed to obtain a homogenous solution. Ethyl acetate solvent was removed with speed vacuum to obtain a solid thin film. The residue was kept overnight under high vacuum at room temperature to remove residual organic solvent. In step two, the resultant thin film was hydrated with 1 mL of double distilled deionized water by vortexing the solution. The rehydrated formulation was suspended in 2× phosphate buffer solution, (pH 6.5). It was filtered through 0.2 μm nylon filter membrane to remove the unentrapped drug aggregates and other foreign particulates. […]
The preparation of MNF encapsulating compound 1001 (neat oil) can be divided into two steps. As an example for the development of 3.0 wt % HCO-40 or HCO-60 MNF encapsulating 0.4% compound 1001 is described below. […] To this melt polymer compound 1001 (˜20 mg), thermostated at 40° C., was added and mixed for homogenous distribution. […] (in refrigerator).
This aqueous solution was allowed to reach room temperature, under natural conditions. The pH of the solution was adjusted to 5.5 and the volume was made up with 2× phosphate buffer saline (pH 5.5) containing octoxynol-40 (0.01 wt %) and PVP-K-90 (1.2 wt %). The formulation was filtered through 0.2 μm nylon filter to remove any foreign material and obtain a clear homogenous aqueous RX-1001 formulation.
The results obtained for physical appearance of the mixture, different phases, at different temperatures and appearance of final formulation are summarized in Tables 2a-2c. […]

[2] = Mixed nanomicellar size and polydispersity index (Zetasizer); assay type: physicochemical; conditions: solvent evaporation; HCO-60 4 wt %, Octoxynol-40 0.01 wt %, 1001 initially added 0.120 wt %
Experimental: The formulation size and polydispersity index were determined with Zetasizer, Malvern Instruments, NJ. In brief, approximately 1 ml of each formulation was transferred to a cuvette and placed in the instrument. A laser beam of light was used to determine the mixed nanomicellar size.
Weight percent of drug loaded into MNF was determined following the method for entrapment efficiency. Size and polydispersity index of the formulations was determined with Malvern zetasizer as described above. The formulations appear clear and have small size and narrow size distribution.

[3] = melt at 40° C., cooled to room temperature, HCO-40 0.5 wt %
[4] = melt at 40° C., cooled to room temperature, HCO-40 0.75 wt %
[5] = melt at 40° C., cooled to room temperature, HCO-40 1.0 wt %
[6] = melt at 40° C., cooled to room temperature, HCO-40 1.25 wt %
[7] = melt at 40° C., cooled to room temperature, HCO-40 1.5 wt %
[8] = melt at 40° C., cooled to room temperature, HCO-40 1.75 wt %
[9] = melt at 40° C., cooled to room temperature, HCO-40 2.0 wt %
[10] = melt at 40° C., cooled to room temperature, HCO-40 2.25 wt %
[11] = melt at 40° C., cooled to room temperature, HCO-40 2.5 wt %
[12] = melt at 40° C., cooled to room temperature, HCO-40 2.75 wt %
[13] = melt at 40° C., cooled to room temperature, HCO-40 3.0 wt %
[14] = melt at 40° C., cooled to room temperature, HCO-40 4.0 wt %

Final formulation [1, 3]: Emulsion
Resuspend in water [1, 3]: Emulsion
Final formulation [1, 4]: Emulsion
Resuspend in water [1, 4]: Emulsion
Final formulation [1, 5]: Emulsion
Resuspend in water [1, 5]: Emulsion
Final formulation [1, 6]: Emulsion
Resuspend in water [1, 6]: Emulsion
Final formulation [1, 7]: Emulsion
Resuspend in water [1, 7]: Emulsion
Final formulation [1, 8]: Emulsion
Resuspend in water [1, 8]: Emulsion
Final formulation [1, 9]: Emulsion
Resuspend in water [1, 9]: Emulsion
Final formulation [1, 10]: Emulsion
Resuspend in water [1, 10]: Emulsion
Final formulation [1, 11]: Yellow color
Resuspend in water [1, 11]: Yellow
Final formulation [1, 12]: Pale yellow
Resuspend in water [1, 12]: Pale yellow
Final formulation [1, 13]: Clear
Resuspend in water [1, 13]: Clear
Final formulation [1, 14]: Clear
Resuspend in water [1, 14]: Clear
Resuspend in water ([1]; melt cooled to 25° C., placed at 4° C., back to room temperature, water at 40° C., HCO-40 0.5 wt %): Emulsion
Resuspend in water ([1]; melt cooled to 25° C., placed at 4° C., back to room temperature, water at 40° C., HCO-40 0.75 wt %): Emulsion
Resuspend in water ([1]; melt cooled to 25° C., placed at 4° C., back to room temperature, water at 40° C., HCO-40 1.0 wt %): Emulsion
Resuspend in water ([1]; melt cooled to 25° C., placed at 4° C., back to room temperature, water at 40° C., HCO-40 1.25 wt %): Emulsion
Resuspend in water ([1]; melt cooled to 25° C., placed at 4° C., back to room temperature, water at 40° C., HCO-40 1.5 wt %): Emulsion
Resuspend in water ([1]; melt cooled to 25° C., placed at 4° C., back to room temperature, water at 40° C., HCO-40 1.75 wt %): Emulsion
Resuspend in water ([1]; melt cooled to 25° C., placed at 4° C., back to room temperature, water at 40° C., HCO-40 2.0 wt %): Emulsion
Resuspend in water ([1]; melt cooled to 25° C., placed at 4° C., back to room temperature, water at 40° C., HCO-40 2.25 wt %): Emulsion
Resuspend in water ([1]; melt cooled to 25° C., placed at 4° C., back to room temperature, water at 40° C., HCO-40 2.5 wt %): Yellow
Resuspend in water ([1]; melt cooled to 25° C., placed at 4° C., back to room temperature, water at 40° C., HCO-40 2.75 wt %): Pale yellow
Resuspend in water ([1]; melt cooled to 25° C., placed at 4° C., back to room temperature, water at 40° C., HCO-40 3.0 wt %): Clear
Resuspend in water ([1]; melt cooled to 25° C., placed at 4° C., back to room temperature, water at 40° C., HCO-40 4.0 wt %): Clear
Final formulation ([1]; melt cooled to 25° C., placed at 4° C., back to room temperature, HCO-40 0.5 wt %): Emulsion
Final formulation ([1]; melt cooled to 25° C., placed at 4° C., back to room temperature, HCO-40 0.75 wt %): Emulsion
Final formulation ([1]; melt cooled to 25° C., placed at 4° C., back to room temperature, HCO-40 1.0 wt %): Emulsion
Final formulation ([1]; melt cooled to 25° C., placed at 4° C., back to room temperature, HCO-40 1.25 wt %): Emulsion
Final formulation ([1]; melt cooled to 25° C., placed at 4° C., back to room temperature, HCO-40 1.5 wt %): Emulsion
Final formulation ([1]; melt cooled to 25° C., placed at 4° C., back to room temperature, HCO-40 1.75 wt %): Emulsion
Final formulation ([1]; melt cooled to 25° C., placed at 4° C., back to room temperature, HCO-40 2.0 wt %): Emulsion
Final formulation ([1]; melt cooled to 25° C., placed at 4° C., back to room temperature, HCO-40 2.25 wt %): Emulsion
Final formulation ([1]; melt cooled to 25° C., placed at 4° C., back to room temperature, HCO-40 2.5 wt %): Yellow color
Final formulation ([1]; melt cooled to 25° C., placed at 4° C., back to room temperature, HCO-40 2.75 wt %): Very pale yellow
Final formulation ([1]; melt cooled to 25° C., placed at 4° C., back to room temperature, HCO-40 3.0 wt %): Clear
Final formulation ([1]; melt cooled to 25° C., placed at 4° C., back to room temperature, HCO-40 4.0 wt %): Clear
Final formulation (make up with 2X buffer containing 0.01% Oc-40) ([1]; melt method, HCO-60 1.0 wt %): Emulsion
Resuspend in water ([1]; melt method, HCO-60 1.0 wt %, water at 40°): Emulsion
Final formulation (make up with 2X buffer containing 0.01% Oc-40) ([1]; melt method, HCO-60 2.0 wt %): Pale yellow
Resuspend in water ([1]; melt method, HCO-60 2.0 wt %, water at 40°): Forms pale
Final formulation (make up with 2X buffer containing 0.01% Oc-40) ([1]; melt method, HCO-60 2.25 wt %): Pale yellow
Resuspend in water ([1]; melt method, HCO-60 2.25 wt %, water at 40°): Forms pale
Final formulation (make up with 2X buffer containing 0.01% Oc-40) ([1]; melt method, HCO-60 2.5 wt %): Pale yellow
Resuspend in water ([1]; melt method, HCO-60 2.5 wt %, water at 40°): Forms very
Final formulation (make up with 2X buffer containing 0.01% Oc-40) ([1]; melt method, HCO-60 2.75 wt %): Clear solution
Resuspend in water ([1]; melt method, HCO-60 2.75 wt %, water at 40°): Forms very
Final formulation (make up with 2X buffer containing 0.01% Oc-40) ([1]; melt method, HCO-60 3.0 wt %): Clear solution
Resuspend in water ([1]; melt method, HCO-60 3.0 wt %, water at 40°): Clear solution
Final formulation (make up with 2X buffer containing 0.01% Oc-40) ([1]; melt method, HCO-60 3.5 wt %): Clear solution
Resuspend in water ([1]; melt method, HCO-60 3.5 wt %, water at 40°): Clear solution
Final formulation (make up with 2X buffer containing 0.01% Oc-40) ([1]; melt method, HCO-60 4.0 wt %): Clear solution
Resuspend in water ([1]; melt method, HCO-60 4.0 wt %, water at 40°): Clear solution
Compound: C#CC[C@@H](O)/C=C/C=C/C#C[C@@H](O)CCCC(=O)OC(C)C [compound 1001]
Result ([1]; 1001 initially added 0.035 wt %): Clear/transparent
Result ([1]; 1001 initially added 0.070 wt %): Clear/transparent
Result ([1]; 1001 initially added 0.095 wt %): Clear/transparent
Result ([1]; 1001 initially added 0.120 wt %): Pale yellow color
Result ([1]; 1001 initially added 0.250 wt %): Yellow color
Result ([1]; 1001 initially added 0.300 wt %): Yellow color
Result ([1]; 1001 initially added 0.400 wt %): Yellow color
Polydispersity Index [2]: 0.320
